For this assay, the system named is c-myc in 22RV-1 cells. The experiment in a line: Human c-myc ELISA assay. Type of assay: cell-based. To be noted: Homo sapiens; for Emax: 22Rv1, 18 h, read-out: Degradation of BRD4: Maximum inhibition (%) c-Myc ELISA in 22RV1 cells; for DC50: 22Rv1, read-out: Degradation of BRD4: DC50 (uM) c-Myc ELISA in 22RV1 cells. The procedure, abridged:
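22RV-1 cells treated 18 h with 8-point 1:3 compound dilutions (final top 300 nM or 1 μM, 0.1% DMSO). Cells lysed in RIPA buffer with protease/phosphatase inhibitors, and c-myc protein in cleared lysate quantified by ELISA against a standard curve. DC50 reported for c-myc suppression.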
(In an ELISA, binding on a coated surface is turned into a signal by an enzyme label.)

The results in this text go back to patent publication US11554171B2, “Compounds and methods for the targeted degradation of bromodomain-containing proteins” (Arvinas Operations, Inc., priority 2015, dated 2023).

A word on the DC50: it is the concentration giving 50% degradation. As to `Cc1noc(-c2ccc([C@H](C)NC(=O)[C@@H]3C[C@@H](O)CN3C(=O)[C@@H](NC(=O)Cc3ccc(O[C@H]4C[C@H](NC(=O)C[C@@H]5N=C(c6ccc(Cl)cc6)c6c(sc(C)c6C)-n6c(C)nnc65)C4)cc3)C(C)(C)C)cc2)n1` [Example 275], the Emax is 50.1% and the DC50 lay in the range of 0.1 to 1 µM.

With `Cc1ncoc1-c1ccc([C@H](C)NC(=O)[C@@H]2C[C@@H](O)CN2C(=O)[C@@H](C(C)C)n2cc(-c3ccnc(O[C@H]4C[C@@H](NC(=O)C[C@@H]5N=C(c6ccc(Cl)cc6)c6c(sc(C)c6C)-n6c(C)nnc65)C4)c3)cn2)cc1` [Example 276], the Emax is 36% and the DC50 is more than 1 µM.

Turning to `Cc1ncoc1-c1ccc([C@H](C)NC(=O)[C@@H]2C[C@@H](O)CN2C(=O)[C@H](C(C)C)n2cc(-c3ccnc(O[C@H]4C[C@@H](NC(=O)C[C@@H]5N=C(c6ccc(Cl)cc6)c6c(sc(C)c6C)-n6c(C)nnc65)C4)c3)cn2)cc1` [Example 277], the Emax was determined as 94% and the DC50 lay in the range of 0.01 to 0.1 µM.

For `Cc1ncoc1-c1ccc([C@H](C)NC(=O)[C@@H]2C[C@@H](O)CN2C(=O)[C@@H](NC(=O)COc2ccc(O[C@H]3C[C@@H](NC(=O)C[C@@H]4N=C(c5ccc(Cl)cc5)c5c(sc(C)c5C)-n5c(C)nnc54)C3)nc2)C(C)(C)C)cc1` [Example 278], the Emax was determined as 95.4% and the DC50 was less than 0.01 µM.

`Cc1sc2c(c1C)C(c1ccc(Cl)cc1)=NC(CC(=O)N[C@H]1C[C@H](Oc3ccc(CC(=O)N[C@H](C(=O)N4C[C@H](O)C[C@H]4C(=O)N[C@@H](C)c4ccc(C#N)cc4)C(C)(C)C)cc3)C1)c1nnc(C)n1-2` (stereo partly drawn) [Example 279]: the Emax is 65.4% and the DC50 is 0.1 to 1 µM.

On to `Cc1ncsc1-c1ccc([C@H](C)NC(=O)[C@@H]2C[C@@H](O)CN2C(=O)[C@@H](NC(=O)Cc2ccc(O[C@H]3C[C@H](NC(=O)C[C@@H]4N=C(c5ccc(Cl)cc5)c5c(sc(C)c5C)-n5c(C)nnc54)C3)cc2)C(C)C)cc1` [Example 280], for which the Emax came out at 95.4% and the 50% degradation concentration (DC50) lay within 0.01 to 0.1 µM.

As to `Cc1sc2c(c1C)C(c1ccc(Cl)cc1)=N[C@@H](CC(=O)N[C@H]1C[C@H](Oc3ccc(CC(=O)N[C@H](C(=O)N4C[C@H](O)C[C@H]4C(=O)N[C@@H](C)c4ccc(-c5ncon5)cc4)C(C)(C)C)cc3)C1)c1nnc(C)n1-2` [Example 281], the Emax was found to be 91.4% and the DC50 fell in the range of 0.01 to 0.1 µM.

Turning to `Cc1sc2c(c1C)C(c1ccc(Cl)cc1)=N[C@@H](CC(=O)N[C@H]1C[C@H](Oc3ccc(CC(=O)N[C@H](C(=O)N4C[C@H](O)C[C@H]4C(=O)N[C@@H](C)c4ccc(C(=O)N5CCC5)cc4)C(C)(C)C)cc3)C1)c1nnc(C)n1-2` [Example 282], the Emax worked out at 25.4% and the DC50 is more than 1 µM.

Take `Cc1ncsc1-c1ccc([C@H](C)NC(=O)[C@@H]2C[C@@H](O)CN2C(=O)[C@@H](C(C)C)n2cc(-c3cnc(O[C@H]4C[C@H](NC(=O)C[C@@H]5N=C(c6ccc(Cl)cc6)c6c(sc(C)c6C)-n6c(C)nnc65)C4)cn3)cn2)cc1` [Example 283]: the Emax was determined as 89.5% and the DC50 was 0.01 to 0.1 µM.

For `Cc1ncsc1-c1ccc([C@H](C)NC(=O)[C@@H]2C[C@@H](O)CN2C(=O)[C@H](C(C)C)n2cc(-c3cnc(O[C@H]4C[C@H](NC(=O)C[C@@H]5N=C(c6ccc(Cl)cc6)c6c(sc(C)c6C)-n6c(C)nnc65)C4)cn3)cn2)cc1` [Example 284], the Emax was determined as 93.4% and the DC50 is less than 0.01 µM.

On to `Cc1ncoc1-c1ccc([C@H](C)NC(=O)[C@@H]2C[C@@H](O)CN2C(=O)[C@@H](C(C)C)n2cc(-c3cccc(O[C@H]4C[C@@H](NC(=O)C[C@@H]5N=C(c6ccc(Cl)cc6)c6c(sc(C)c6C)-n6c(C)nnc65)C4)c3)cn2)cc1` [Example 285], for which the Emax stood at 44.4% and the DC50 was more than 1 µM.

`Cc1ncoc1-c1ccc([C@H](C)NC(=O)[C@@H]2C[C@@H](O)CN2C(=O)C(C(C)C)n2cc(-c3cccc(O[C@H]4C[C@@H](NC(=O)C[C@@H]5N=C(c6ccc(Cl)cc6)c6c(sc(C)c6C)-n6c(C)nnc65)C4)c3)cn2)cc1` (stereo partly drawn) [Example 286]: the Emax is 93% and the DC50 lay within 0.01 to 0.1 µM.
